Results from US4975430A, “CNQX and its analogs as therapeutics for degenerative neural diseases” (The State of Oregon Acting by and Through The State Board …, priority 1989, dated 1990).

Experiments:
[1] = system: non-NMDA receptor for kainate; assay: kainate-mediated current in dissociated hippocampal neurons (control experiment); assay type: cell-based, rat; conditions: 10 uM CNQX, 20 uM kainate
non-NMDA receptors = conditions: U.S. Pat. No. 4,812,458; cited from earlier work
NMDA receptor [2] = assay: NMDA receptor-mediated currents, whole cell patch recordings in dissociated hippocampal neurons; assay type: cell-based, rat; conditions: for effect on NMDA receptor-mediated current: 30 uM NMDA
[3] = biological target: glycine binding site (NMDA receptor); assay: 3-H-glycine binding to frontal cortex membranes; conditions: 4 nM 3-H-glycine, washed guinea pig frontal cortex membranes, 30 min on ice; read-out: IC50 for displacement of glycine
NMDA receptor [4] = conditions: cited from earlier work; for effect on responses produced by NMDA: literature reports (Honore et al., Blake et al., Fletcher, Dryer et al.)

For N#Cc1cc2[nH]c(=O)c(=O)[nH]c2cc1[N+](=O)[O-] [CNQX, 6-cyano-7-nitroquinoxaline 2,3-dione], the “effect on kainate-mediated current” value ([1]; 1 uM glycine) is listed as “complete suppression”, the “effect of glycine on suppression of kainate-mediated current” value ([1]; glycine 1000 uM) is listed as “no effect on this suppression” and the “effect on excitation of spinal cord neurons induced by stimulation of non-NMDA receptors” value (non-NMDA receptors) is listed as “depress the excitation”. The “effect on NMDA receptor-mediated current” value (NMDA receptor [2]; 10 uM CNQX, 1 uM glycine (FIG. 2A)) was “suppresses the response”, the “effect on NMDA receptor-mediated current” value (NMDA receptor [2]; 10 uM CNQX, 100 uM glycine) was “substantially no effect” and the “effect on NMDA receptor-mediated current” value (NMDA receptor [2]; 30 uM CNQX, 200 uM glycine, reversed by 500 uM NMDA (FIG. 2B)) was “relatively low suppression”. The “dependence of CNQX effects on membrane potential” value (NMDA receptor [2]; currents recorded at +40 mv and -40 mV) was “not dependent on membrane potential”, the “glycine potentiation of NMDA receptor-mediated currents” value (NMDA receptor [2]; varying glycine, 10 uM or 30 uM CNQX (FIG. 1)) was “complete potentiation is not achieved” and the IC50 [3] was 5.7 µM. For the same molecule, the “effect on responses produced by NMDA” value (NMDA receptor [4]) was “little or no effect”.

For O=c1[nH]c2cc([N+](=O)[O-])c([N+](=O)[O-])cc2[nH]c1=O [DNQX, 6,7-dinitro-quinoxaline-2,3-dione], the “effect on excitation of spinal cord neurons induced by stimulation of non-NMDA receptors” value (non-NMDA receptors) is given as “depress the excitation”, the “effect on NMDA concentration response curve” value (NMDA receptor [4]; Birch et al. 1988) is given as “shift to the right” and the “effect on maximal response to NMDA” value (NMDA receptor [4]; high antagonist concentrations, Birch et al. 1988) is given as “decrease in maximal response”. The “effect on responses produced by NMDA” value (NMDA receptor [4]) was “little or no effect”.
